The values that follow come from patent publication US20240174662A1, “SMALL MOLECULE INHIBITORS OF SALT INDUCIBLE KINASES” (Janssen Biotech, Inc., priority 2021, published 2024).

Usually IC50 stands for the concentration needed to halve the response being measured. High values mean lower potency, low ones higher potency.

The structures appear in SMILES notation.

In this experiment the target is SIK2 (Homo sapiens (Human), UniProt Q9H0K1). As to the kind of experiment: SIK2 Enzymatic Assay Version 2 (High ATP). As to conditions: 3 mM ATP and 200 μM HDAC5tide final, ADP-Glo Max luminescence. The class given is biochemical. The protocol: All steps were performed at room temperature. Compounds were pre-plated onto an assay plate using an Echo acoustic dispenser (Labcyte, […] or […]) at 80 nL per well. Enzyme prepared in assay buffer at 6 nM (2× final concentration) was added at 4 μL per well using the Multidrop Combi (Thermo Fisher-used for all additions in this assay) to the assay plate, spun for 1 min at 1000 rpm (Allegra 6KR Beckman Coulter centrifuge), and incubated with compound for 30 minutes. […] ADP-Glo Max Reagent (prepared and aliquoted as per manufacturer instructions) was then added at 8 μL per well, spun and incubated for 2 hours. ADP-Glo Max Detection (prepared and aliquoted as per manufacturer instructions) was added at 8 μL per well to the assay plate, which was spun and incubated for 1 hour. The plate was then read on the Pherastar (BMG Labtech) using a luminescence read. Gain was set between 2200-2500.
Chain of SIK2 (Q9H0K1 whole entry, species assumed): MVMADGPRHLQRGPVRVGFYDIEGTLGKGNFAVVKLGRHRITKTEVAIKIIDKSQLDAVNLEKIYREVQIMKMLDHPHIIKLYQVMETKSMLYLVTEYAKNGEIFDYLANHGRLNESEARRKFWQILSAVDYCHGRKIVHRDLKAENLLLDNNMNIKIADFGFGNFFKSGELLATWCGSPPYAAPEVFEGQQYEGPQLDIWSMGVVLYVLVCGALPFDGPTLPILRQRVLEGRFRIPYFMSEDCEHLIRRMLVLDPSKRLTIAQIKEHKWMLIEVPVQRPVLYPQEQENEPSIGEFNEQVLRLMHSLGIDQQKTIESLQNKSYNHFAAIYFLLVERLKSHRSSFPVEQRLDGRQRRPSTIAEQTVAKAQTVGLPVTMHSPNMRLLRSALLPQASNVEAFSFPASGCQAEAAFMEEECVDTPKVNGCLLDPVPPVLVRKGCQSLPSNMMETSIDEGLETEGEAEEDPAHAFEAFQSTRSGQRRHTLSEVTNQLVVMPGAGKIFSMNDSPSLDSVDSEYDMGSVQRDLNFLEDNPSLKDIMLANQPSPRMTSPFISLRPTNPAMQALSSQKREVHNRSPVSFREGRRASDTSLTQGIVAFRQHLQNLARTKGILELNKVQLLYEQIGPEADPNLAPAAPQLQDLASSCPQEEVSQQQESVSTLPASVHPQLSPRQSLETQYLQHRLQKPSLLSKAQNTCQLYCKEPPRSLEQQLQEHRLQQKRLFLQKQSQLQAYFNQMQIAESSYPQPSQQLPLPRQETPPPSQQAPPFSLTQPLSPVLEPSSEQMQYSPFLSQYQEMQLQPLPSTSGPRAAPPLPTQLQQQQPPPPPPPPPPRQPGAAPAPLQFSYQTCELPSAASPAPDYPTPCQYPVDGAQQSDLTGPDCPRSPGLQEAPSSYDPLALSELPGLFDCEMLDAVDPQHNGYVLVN
For orientation: ADP-Glo first removes unused ATP, then detects ADP through luciferase.

The molecule `CCN1CC[C@@H]1COc1cnn(C)c1-c1ccn2nc(Nc3ccc4nccn4n3)cc2c1` [Example 175, N-[5-[4-[[(2R)-1-ethylazetidin-2-yl]methoxy]-2-methyl-pyrazol-3-yl]pyrazolo[1,5-a]pyridin-2-yl]imidazo[1,2-b]pyridazin-6-amine] showed a 50% inhibitory concentration (IC50) of less than 0.847 nM. For `Cn1ncc(COC2CCNCC2)c1-c1ccn2nc(NC(=O)C3CC3)cc2c1` [Example 463, N-[5-[2-methyl-4-(4-piperidyloxymethyl)pyrazol-3-yl]pyrazolo[1,5-a]pyridin-2-yl]cyclopropanecarboxamide] the value was 74.5 nM; for `CN1CC[C@H](Oc2cnn(C)c2-c2ccn3nc(Nc4cc(C(F)(F)F)cnn4)cc3c2)C1` [Example 457, 5-[2-methyl-4-[(3S)-1-methylpyrrolidin-3-yl]oxy-pyrazol-3-yl]-N-[5-(trifluoromethyl)pyridazin-3-yl]pyrazolo[1,5-a]pyridin-2-amine], 165 nM. On to `Cc1snc(O[C@H]2CCNC2)c1-c1ccn2nc(NC(=O)C3CC3)cc2c1` [Example 330, N-[5-[5-methyl-3-[(3S)-pyrrolidin-3-yl]oxy-isothiazol-4-yl]pyrazolo[1,5-a]pyridin-2-yl]cyclopropanecarboxamide], for which half-maximal inhibition (IC50) required 35.2 nM. Compared with the last molecule, the IC50 is about 4.7-fold lower.

In turn, `Cc1cc(Nc2cc3cc(-c4c(OC[C@@H]5CC6(CCC6)CO5)cnn4C)ccn3n2)nc(C)n1` (single isomer, unassigned) [Example 358, *S—N-(2,6-dimethylpyrimidin-4-yl)-5-[2-methyl-4-(7-oxaspiro[3.4]octan-6-ylmethoxy)pyrazol-3-yl]pyrazolo[1,5-a]pyridin-2-amine] yielded a 50% inhibitory concentration (IC50) of 53.5 nM. In turn, `CCN1CC[C@@H]1COc1cnn(C(F)F)c1-c1ccn2nc(Nc3ccc(C)nn3)cc2c1` [Example 480, 5-[2-(difluoromethyl)-4-[[(2R)-1-ethylazetidin-2-yl]methoxy]pyrazol-3-yl]-N-(6-methylpyridazin-3-yl)pyrazolo[1,5-a]pyridin-2-amine] returned an IC50 of 10 nM. Compared with the last molecule, the IC50 is about 5.3-fold lower. `Cn1ncc(O[C@@H]2C[C@H]3COC[C@@H](C2)N3)c1-c1ccn2nc(NC(=O)C3CC3)cc2c1` [Example 43, exo-N-[5-[2-methyl-4-[[(1R,5S)-3-oxa-9-azabicyclo[3.3.1]nonan-7-yl]oxy]pyrazol-3-yl]pyrazolo[1,5-a]pyridin-2-yl]cyclopropanecarboxamide] gave an IC50 of 17.3 nM. Compared with the last molecule, the IC50 is about 1.7-fold higher. The figure for `Cc1nc(Nc2cc3cc(-c4c(OC[C@H]5CCN5C)cnn4C)ccn3n2)cc(C(F)(F)F)n1` [Example 122, 5-[2-methyl-4-[[(2R)-1-methylazetidin-2-yl]methoxy]pyrazol-3-yl]-N-[2-methyl-6-(trifluoromethyl)pyrimidin-4-yl]pyrazolo[1,5-a]pyridin-2-amine] is 3.6 nM.

For the molecule `Cc1onc(OC[C@H]2CN(C)CCO2)c1-c1ccn2nc(NC(=O)C3CC3)cc2c1` [Example 79, N-[5-[5-methyl-3-[[(2R)-4-methylmorpholin-2-yl]methoxy]isoxazol-4-yl]pyrazolo[1,5-a]pyridin-2-yl]cyclopropanecarboxamide], half-maximal inhibition (IC50) was put at 120 nM. Turning to `COC(C)(C)CN1CC[C@@H]1COc1cnn(C)c1-c1ccn2nc(NC(=O)C3CC3)cc2c1` [Example 435, N-[5-[4-[[(2R)-1-(2-methoxy-2-methyl-propyl)azetidin-2-yl]methoxy]-2-methyl-pyrazol-3-yl]pyrazolo[1,5-a]pyridin-2-yl]cyclopropanecarboxamide], the concentration for half-maximal inhibition (IC50) was determined as 79.7 nM.

For the molecule `Cc1cnc(Nc2cc3cc(-c4c(CO[C@H]5CN(C)C[C@@H]5C)cnn4C)ccn3n2)cn1` (stereo in doubt) [Example 469, (rac-trans)-5-[4-[(1,4-dimethylpyrrolidin-3-yl)oxymethyl]-2-methyl-pyrazol-3-yl]-N-(5-methylpyrazin-2-yl)pyrazolo[1,5-a]pyridin-2-amine], it took 27.3 nM to reach half-maximal inhibition (IC50). This IC50 lies about 2.9-fold lower than the previous one.

Molecule `Cc1cc(Nc2cc3cc(-c4c(CO[C@H]5CN(C)C[C@H]5C)cnn4C)ccn3n2)nc(C)n1` (stereo in doubt) [Example 368, CIS—*R, *R—N-(2,6-dimethylpyrimidin-4-yl)-5-[4-[(1,4-dimethylpyrrolidin-3-yl)oxymethyl]-2-methyl-pyrazol-3-yl]pyrazolo[1,5-a]pyridin-2-amine] showed an IC50 of 3.3 nM. Against the preceding molecule, the IC50 is about 8.3-fold lower.

On to `Cc1onc(OCC2(C#N)CNC2)c1-c1ccn2nc(NC(=O)C3CC3)cc2c1` [Example 77, N-[5-[3-[(3-cyanoazetidin-3-yl)methoxy]-5-methyl-isoxazol-4-yl]pyrazolo[1,5-a]pyridin-2-yl]cyclopropanecarboxamide], for which inhibition was half-maximal at 12.9 nM (IC50). The figure for `COC1(COc2noc(C)c2-c2ccn3nc(NC(=O)C4CC4)cc3c2)CCNCC1` [Example 206, N-[5-[3-[(4-methoxy-4-piperidyl)methoxy]-5-methyl-isoxazol-4-yl]pyrazolo[1,5-a]pyridin-2-yl]cyclopropanecarboxamide] is 35 nM; for `Cn1ncc(COC2CNC2)c1-c1ccn2nc(NC(=O)C3CC3)cc2c1` [Example 360, N-[5-[4-(azetidin-3-yloxymethyl)-2-methyl-pyrazol-3-yl]pyrazolo[1,5-a]pyridin-2-yl]cyclopropanecarboxamide] it is 32.8 nM; for `CO[C@H]1CN(C)C[C@H]1Oc1cnn(C)c1-c1ccn2nc(NC(=O)C3CC3)cc2c1` (single isomer, unassigned) [Example 411, (3*R,4*S)—N-[5-[4-(4-methoxy-1-methyl-pyrrolidin-3-yl)oxy-2-methyl-pyrazol-3-yl]pyrazolo[1,5-a]pyridin-2-yl]cyclopropanecarboxamide] it is 86.9 nM. For `Cc1ccc(Nc2cc3cc(-c4c(OC[C@H]5CCN5)cnn4C)ccn3n2)nn1` [Example 392, 5-[4-[[(2R)-azetidin-2-yl]methoxy]-2-methyl-pyrazol-3-yl]-N-(6-methylpyridazin-3-yl)pyrazolo[1,5-a]pyridin-2-amine] the value was 73 nM; for `Cn1ncc(OC[C@H]2CNCCO2)c1-c1ccn2nc(NC(=O)C3CC3)cc2c1` [Example 6, N-[5-[2-methyl-4-[[(2R)-morpholin-2-yl]methoxy]pyrazol-3-yl]pyrazolo[1,5-a]pyridin-2-yl]cyclopropanecarboxamide], 14 nM; for `C[C@H]1CN[C@@H]1COc1cnn(C)c1-c1ccn2nc(NC(=O)C3CC3)cc2c1` [Example 341, N-[5-[2-methyl-4-[[(2S,3S)-3-methylazetidin-2-yl]methoxy]pyrazol-3-yl]pyrazolo[1,5-a]pyridin-2-yl]cyclopropanecarboxamide], 57.7 nM.

Regarding `Cc1cc(Nc2cc3cc(-c4c(OC[C@H]5CCN5)cnn4C)ccn3n2)nc(C(F)(F)F)n1` [Example 273, 5-[4-[[(2R)-azetidin-2-yl]methoxy]-2-methyl-pyrazol-3-yl]-N-[6-methyl-2-(trifluoromethyl)pyrimidin-4-yl]pyrazolo[1,5-a]pyridin-2-amine], the IC50 is 18.1 nM.

On to `Cn1ncc(O[C@H]2CC[C@@H](O)CC2)c1-c1ccn2nc(NC(=O)C3CC3)cc2c1` [Example 404, N-[5-[4-(4-hydroxycyclohexoxy)-2-methyl-pyrazol-3-yl]pyrazolo[1,5-a]pyridin-2-yl]cyclopropanecarboxamide], for which half-maximal inhibition (IC50) required 120 nM. Compared with the last molecule, the IC50 is about 6.6-fold higher. Regarding `COC1CNC[C@@H]1Oc1noc(C)c1-c1ccn2nc(NC(=O)C3CC3)cc2c1` (single isomer, unassigned) [Example 202, N-(5-(3-(((3*S,4*R)-4-methoxypyrrolidin-3-yl)oxy)-5-methylisoxazol-4-yl)pyrazolo[1,5-a]pyridin-2-yl)cyclopropanecarboxamide], inhibition was half-maximal at 12.3 nM (IC50). The figure for `C[C@@H]1CN(C)[C@H]1COc1cnn(C)c1-c1ccn2nc(NC(=O)C3CC3)cc2c1` [Example 24, N-[5-[4-[[(2R,3R)-1,3-Dimethylazetidin-2-yl]methoxy]-2-methyl-pyrazol-3-yl]pyrazolo[1,5-a]pyridin-2-yl]cyclopropanecarboxamide] is 34.9 nM; for `CN1CC[C@@H]1COc1cnn(C)c1-c1ccn2nc(Nc3ccc4nccn4n3)cc2c1` [Example 149, N-[5-[2-methyl-4-[[(2R)-1-methylazetidin-2-yl]methoxy]pyrazol-3-yl]pyrazolo[1,5-a]pyridin-2-yl]imidazo[1,2-b]pyridazin-6-amine] it is 2 nM. `CCN1CC[C@@H]1COc1cnn(C)c1-c1ccn2nc(Nc3cc(C)nc(OC)n3)cc2c1` [Example 173, 5-[4-[[(2R)-1-ethylazetidin-2-yl]methoxy]-2-methyl-pyrazol-3-yl]-N-(2-methoxy-6-methyl-pyrimidin-4-yl)pyrazolo[1,5-a]pyridin-2-amine]: the IC50 is less than 0.847 nM. As to `Cc1cnc(Nc2cc3cc(-c4c(CO[C@H]5CN(C)C[C@@H]5C)cnn4C)ccn3n2)cn1` (stereo in doubt) [Example 372, Trans-*S, *R-5-[4-[(1,4-dimethylpyrrolidin-3-yl)oxymethyl]-2-methyl-pyrazol-3-yl]-N-(5-methylpyrazin-2-yl)pyrazolo[1,5-a]pyridin-2-amine], the IC50 was 24.4 nM. For the molecule `Cc1cc(Nc2cc3cc(-c4c(OC[C@H]5CCN5C)cnn4C)ccn3n2)nc(C(C)(C)C)n1` [Example 151, N-(2-tert-butyl-6-methyl-pyrimidin-4-yl)-5-[2-methyl-4-[[(2R)-1-methylazetidin-2-yl]methoxy]pyrazol-3-yl]pyrazolo[1,5-a]pyridin-2-amine], the IC50 was less than 0.847 nM. `CN1CC[C@@H]1COc1cnn(C)c1-c1ccn2nc(Nc3cnc(C(F)(F)F)cn3)cc2c1` [Example 117, 5-[2-methyl-4-[[(2R)-1-methylazetidin-2-yl]methoxy]pyrazol-3-yl]-N-[5-(trifluoromethyl)pyrazin-2-yl]pyrazolo[1,5-a]pyridin-2-amine] registered an IC50 of 8.8 nM. In other words, the single-digit nanomolar range.
